Data on one molecule can be found in patent publication US20090232735A1, “USE OF FRUCTOSE-BASED THERAPIES FOR THE TREATMENT OF CANCER” (CEDARS-SINAI MEDICAL CENTER, priority 2005, published 2009).

Assay [1] relates to ER positive MCF-7 breast cancer cells. Nature of the assay: Breast cancer cell proliferation (MTT assay), MCF-7. The assay is classed as cell-based, human. As to the method:
Estrogen receptor (ER) positive MCF-7, and ER negative MDA-MB231 cells were plated in 5 mM fructose or glucose for times between 8-72 h, and proliferative rates measured using MTT assay. *, p<0.05; **, p<0.01.
FIG. 5 depicts fructose-mediated increased breast cancer proliferation in accordance with an embodiment of the present invention. ER positive MCF-7, and ER negative MDA-MB231 cells were plated in a range of fructose or glucose concentrations (5-25 mM) for 72 h, after which proliferative rates were measured using an MTT assay. *, p<0.05 for concentrations between 5-25 mM fructose versus glucose.
Standard media for breast cancer cell culture contain either 5-7 mM (low) and 12-25 mM (high) glucose concentrations. Estrogen receptor (ER) positive MCF-7, and ER negative MDA-MB231 cells were cultured overnight in 2 mM glucose standard DMEM medium containing 10% fetal bovine serum prior to incubation for periods between 8, and 72 hours in standard DMEM medium containing 10% fetal bovine serum, and 5 mM glucose or 5 mM fructose.
Proliferative rates were then measured in replicate (minimum of 6) aliquot wells of the breast cancer cells grown in glucose, or fructose containing medium. […] In separate experiments, proliferative rates of the MCF-7, and MDA-MB231 breast cancer cells were compared following culture in a range of fructose, and glucose concentrations (2-25 mM) for 72 hours.
Background: Formazan colour is commonly taken as a measure of viable cells.

For assay [2], the system named is GLUT-5 mRNA. The assay is described as follows: GLUT-5 mRNA by real-time RT-PCR in PANC-1 cells. The assay is classed as cell-based, human. As to the method: FIG. 22 depicts […] mRNA levels in pancreatic cancer cells in accordance with an embodiment of the present invention. Quantitative real-time RT-PCR was used to measure GLUT-5 mRNA levels in pancreatic cancer cells (PANC-1), following culture in 2 mM glucose, 5.5 mM glucose, or 5.5 mM fructose for 4 h and 24 h.
Brit J Biomed Sci 56(4): 285-292, 1999; Rogers S, Docherty S E, Slavin J L, Henderson and Best J D. Differential expression of GLUT12 in breast cancer and normal breast tissue. Cancer Letters 193(2): 225-233, 2003). […] Teal-time RT-PCR was used to measure GLUT-5 mRNA expression following 2 mM, and 5.5 mM glucose-, and 5.5 mM fructose-treatment for 4 h, and 24 h respectively. GLUT-5 mRNA was expressed as the fold-change relative to GLUT-5 mRNA levels in 2 mM glucose-treated cells. As depicted in FIG. 22, at 4 h, GLUT-5 mRNA levels were low in both the 5.5 mM glucose-, and fructose-treated PANC-1 cells. […] This agrees with other studies which have reported fructose-induced GLUT-5 mRNA expression in colon cancer (Gouyon F, Onesto C, Dalet V, Pages G, Leturque A, and Brot-Laroche E. Fructose modulates GLUT5 mRNA stability in differentiated Caco-2 cells: Role of cAMP-signalling pathway and PABP (polyadenylated-binding protein)-interacting protein (Paip) 2. J Biochem 375:167-174, 2003).
On the technique in general: Quantitative PCR measures a nucleic acid by following its amplification.

Regarding `O=C(CO)[C@@H](O)[C@H](O)[C@H](O)CO` [fructose], in assay [1] (MCF-7, 5 mM fructose vs 5 mM glucose, 8-72 h), the “proliferative rates in fructose compared to glucose” value was “higher proliferative rates”. For the same molecule, the “proliferative rates in 5 mM fructose compared to 25 mM glucose” value in assay [1] (MCF-7, 72 hours, 5 mM fructose vs 5-fold higher glucose (25 mM)) was “higher proliferative rates”. In assay [2] (PANC-1, 5.5 mM fructose, 24 h), the “GLUT-5 mRNA levels higher than in 2 mM glucose-treated cells” value is reported as 1.5 fold and the “GLUT-5 mRNA levels higher than in 5.5 mM glucose-treated cells” value was 1.75 fold. The “GLUT-5 mRNA levels” value in assay [2] (PANC-1, 5.5 mM sugar, 4 h) is given as “low”.
